Columns and labels:
corn = assay: Test C preemergence; format: in vivo, Zea mays
How it was run: (§1)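 Greenhouse herbicide screen. Pre: seeded loam/sand, sprayed at planting. Post: 1–4 leaf plants (2–18 cm) in peat-based mix. Formulation: solvent mixture + surfactant, non-phytotoxic. Readout: visual % control vs untreated, 13–15 d; dash = not tested.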

ragweed = assay: Test A preemergence; format: in vivo, Ambrosia elatior
How it was run: (§2)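 Greenhouse pot test, loam/sand soil. Formulation: non-phytotoxic solvent mix plus surfactant. Pre: directed spray onto soil after sowing. Post: plants at 1–2 leaf, 2–10 cm. Rated visually vs untreated controls at ~10 d, 0 (no effect) to 100 (complete control).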

waterhemp = assay: Test C preemergence; format: in vivo, Amaranthus rudis
How it was run: as §1

lambsquarters = assay: Test C preemergence; format: in vivo, Chenopodium album
How it was run: as §1

Italian ryegrass = assay: Test A preemergence; format: in vivo, Lolium multiflorum
How it was run: as §2

blackgrass = assay: Test A postemergence; format: in vivo, Alopecurus myosuroides
How it was run: as §2

velvetleaf = assay: Test C preemergence; format: in vivo, Abutilon theophrasti
How it was run: as §1

giant foxtail = assay: Test C preemergence; format: in vivo, Setaria faberii
How it was run: as §1

large (Lg) crabgrass = assay: Test C preemergence; format: in vivo, Digitaria sanguinalis
How it was run: as §1

wheat, winter = assay: Test C preemergence; format: in vivo, Triticum aestivum
How it was run: as §1

pigweed = assay: Test C preemergence; format: in vivo, Amaranthus retroflexus
How it was run: as §1

galium [1] = assay: Test C preemergence; format: in vivo, Galium aparine
How it was run: as §1

galium [2] = assay: Test A postemergence; format: in vivo, Galium aparine
How it was run: as §2

kochia = assay: Test A preemergence; format: in vivo, Kochia scoparia
How it was run: as §2

[3] = 16 g ai/ha, preemergence, scale 0 to 100 (0 no effect, 100 complete control)
[4] = 125 g ai/ha, preemergence, scale 0 (no effect) to 100 (complete control)
[5] = Preemergence, 62 g ai/ha, scale 0 to 100, 0 no effect, 100 complete control
[6] = 31 g ai/ha, 0 to 100 scale where 0 is no effect and 100 is complete control, visual, approximately 10 days
[7] = 31 g ai/ha, 0 to 100 scale, 0 no effect, 100 complete control
[8] = 125 g ai/ha, 0 to 100 scale, 0 no effect, 100 complete control
[9] = 125 g ai/ha, 0 to 100 scale where 0 is no effect and 100 is complete control
[10] = 500 g ai/ha, 0 to 100 scale where 0 is no effect and 100 is complete control

FC(F)Oc1cnn(-c2c(Cl)cccc2Oc2ncc(Cl)cn2)c1 [Compound 258]
Corn plant response rating (corn; [3]): 0
Corn plant response rating (corn; [4]): 65
Plant response rating, Corn (corn; [5]): 45
Plant response rating, Ragweed (ragweed; [6]): 0
Ragweed plant response rating (0 to 100 scale) (ragweed; 125 g ai/ha): 40
Waterhemp plant response rating (waterhemp; [3]): 100
Waterhemp plant response rating (waterhemp; [4]): 100
Plant response rating, Waterhemp (waterhemp; [5]): 98
Lambsquarters plant response rating (lambsquarters; [3]): 65
Lambsquarters plant response rating (lambsquarters; [4]): 98
Plant response rating, Lambsquarters (lambsquarters; [5]): 98
Plant response rating, Ryegrass, Italian (Italian ryegrass; [6]): 0
Ryegrass, Italian plant response rating (0 to 100 scale) (Italian ryegrass; 125 g ai/ha): 10
Plant response rating, Blackgrass (blackgrass; [7]): 20
Plant response rating, Blackgrass (blackgrass; [8]): 50
Velvetleaf plant response rating (velvetleaf; [3]): 80
Velvetleaf plant response rating (velvetleaf; [4]): 100
Plant response rating, Velvetleaf (velvetleaf; [5]): 100
Foxtail, Giant plant response rating (giant foxtail; [3]): 75
Foxtail, Giant plant response rating (giant foxtail; [4]): 100
Plant response rating, Foxtail, Giant (giant foxtail; [5]): 100
Crabgrass, Large plant response rating (large (Lg) crabgrass; [3]): 100
Crabgrass, Large plant response rating (large (Lg) crabgrass; [4]): 100
Plant response rating, Crabgrass, Large (large (Lg) crabgrass; [5]): 100
Wheat plant response rating (wheat, winter; [3]): 0
Wheat plant response rating (wheat, winter; [4]): 25
Plant response rating, Wheat (wheat, winter; [5]): 5
Pigweed plant response rating (pigweed; [3]): 100
Pigweed plant response rating (pigweed; [4]): 100
Plant response rating, Pigweed (pigweed; [5]): 100
Galium plant response rating (galium [1]; [3]): 80
Galium plant response rating (galium [1]; [4]): 100
Plant response rating, Galium (galium [1]; [5]): 100
Plant response rating, Galium (galium [2]; [7]): 70
Plant response rating, Galium (galium [2]; [8]): 90
Plant response rating, Kochia (kochia; [6]): 90
Kochia plant response rating (0 to 100 scale) (kochia; 125 g ai/ha): 90

N#Cc1cccc(Oc2ncc(Cl)cn2)c1-n1cc(SC(F)(F)F)cn1 [Compound 134, 3-[(5-chloro-2-pyrimidinyl)oxy]-2-[4-(trifluoromethylthio)-1-pyrazolyl]benzonitrile]
plant injury at 16 g/ha (corn; Zea mays, pre-emergence, 16 g ai/ha, preemergence, scale 0 to 100 (0 no effect, 100 complete control), read-out: Corn plant response rating): 0%
plant injury at 62 g/ha (corn; Zea mays, pre-emergence, 62 g ai/ha, preemergence, scale 0 (no effect) to 100 (complete control), read-out: Corn plant response rating): 40%
plant injury at 125 g/ha (corn; Zea mays, pre-emergence, 125 g ai/ha, preemergence, scale 0 (no effect) to 100 (complete control), read-out: Corn plant response rating): 40%
Corn plant response rating (crop injury, 0 = no effect, 100 = complete kill) at 31 g/ha (corn; Zea mays, pre-emergence, Preemergence, 31 g ai/ha, scale 0 to 100, 0 no effect, 100 complete control): 30%
Plant response rating, Ragweed (ragweed; [9]): 60
Ragweed plant response rating (ragweed; [10]): 80
pest or weed control at 16 g/ha (waterhemp; Amaranthus tuberculatus, pre-emergence, 16 g ai/ha, preemergence, scale 0 to 100 (0 no effect, 100 complete control), read-out: Waterhemp plant response rating): 85%
pest or weed control at 62 g/ha (waterhemp; Amaranthus tuberculatus, pre-emergence, 62 g ai/ha, preemergence, scale 0 (no effect) to 100 (complete control), read-out: Waterhemp plant response rating): 100%
pest or weed control at 125 g/ha (waterhemp; Amaranthus tuberculatus, pre-emergence, 125 g ai/ha, preemergence, scale 0 (no effect) to 100 (complete control), read-out: Waterhemp plant response rating): 100%
pest or weed control at 31 g/ha (waterhemp; Amaranthus tuberculatus, pre-emergence, Preemergence, 31 g ai/ha, scale 0 to 100, 0 no effect, 100 complete control, read-out: Plant response rating, Waterhemp): 100%
pest or weed control at 16 g/ha (lambsquarters; Chenopodium album, pre-emergence, 16 g ai/ha, preemergence, scale 0 to 100 (0 no effect, 100 complete control), read-out: Lambsquarters plant response rating): 60%
pest or weed control at 62 g/ha (lambsquarters; Chenopodium album, pre-emergence, 62 g ai/ha, preemergence, scale 0 (no effect) to 100 (complete control), read-out: Lambsquarters plant response rating): 100%
pest or weed control at 125 g/ha (lambsquarters; Chenopodium album, pre-emergence, 125 g ai/ha, preemergence, scale 0 (no effect) to 100 (complete control), read-out: Lambsquarters plant response rating): 100%
pest or weed control at 31 g/ha (lambsquarters; Chenopodium album, pre-emergence, Preemergence, 31 g ai/ha, scale 0 to 100, 0 no effect, 100 complete control, read-out: Plant response rating, Lambsquarters): 100%
Plant response rating, Ryegrass, Italian (Italian ryegrass; [9]): 20
Ryegrass, Italian plant response rating (Italian ryegrass; [10]): 40
Blackgrass plant response rating (blackgrass; [9]): 30
Plant response rating, Blackgrass (blackgrass; [10]): 90
pest or weed control at 16 g/ha (velvetleaf; Abutilon theophrasti, pre-emergence, 16 g ai/ha, preemergence, scale 0 to 100 (0 no effect, 100 complete control), read-out: Velvetleaf plant response rating): 30%
pest or weed control at 62 g/ha (velvetleaf; Abutilon theophrasti, pre-emergence, 62 g ai/ha, preemergence, scale 0 (no effect) to 100 (complete control), read-out: Velvetleaf plant response rating): 85%
pest or weed control at 125 g/ha (velvetleaf; Abutilon theophrasti, pre-emergence, 125 g ai/ha, preemergence, scale 0 (no effect) to 100 (complete control), read-out: Velvetleaf plant response rating): 100%
pest or weed control at 31 g/ha (velvetleaf; Abutilon theophrasti, pre-emergence, Preemergence, 31 g ai/ha, scale 0 to 100, 0 no effect, 100 complete control, read-out: Plant response rating, Velvetleaf): 35%
pest or weed control at 16 g/ha (giant foxtail; Setaria faberi, pre-emergence, 16 g ai/ha, preemergence, scale 0 to 100 (0 no effect, 100 complete control), read-out: Foxtail, Giant plant response rating): 10%
pest or weed control at 62 g/ha (giant foxtail; Setaria faberi, pre-emergence, 62 g ai/ha, preemergence, scale 0 (no effect) to 100 (complete control), read-out: Foxtail, Giant plant response rating): 100%
pest or weed control at 125 g/ha (giant foxtail; Setaria faberi, pre-emergence, 125 g ai/ha, preemergence, scale 0 (no effect) to 100 (complete control), read-out: Foxtail, Giant plant response rating): 100%
pest or weed control at 31 g/ha (giant foxtail; Setaria faberi, pre-emergence, Preemergence, 31 g ai/ha, scale 0 to 100, 0 no effect, 100 complete control, read-out: Plant response rating, Foxtail, Giant): 65%
pest or weed control at 16 g/ha (large (Lg) crabgrass; Digitaria sanguinalis, pre-emergence, 16 g ai/ha, preemergence, scale 0 to 100 (0 no effect, 100 complete control), read-out: Crabgrass, Large plant response rating): 60%
pest or weed control at 62 g/ha (large (Lg) crabgrass; Digitaria sanguinalis, pre-emergence, 62 g ai/ha, preemergence, scale 0 (no effect) to 100 (complete control), read-out: Crabgrass, Large plant response rating): 98%
pest or weed control at 125 g/ha (large (Lg) crabgrass; Digitaria sanguinalis, pre-emergence, 125 g ai/ha, preemergence, scale 0 (no effect) to 100 (complete control), read-out: Crabgrass, Large plant response rating): 100%
pest or weed control at 31 g/ha (large (Lg) crabgrass; Digitaria sanguinalis, pre-emergence, Preemergence, 31 g ai/ha, scale 0 to 100, 0 no effect, 100 complete control, read-out: Plant response rating, Crabgrass, Large): 98%
plant injury at 16 g/ha (wheat, winter; Triticum aestivum, pre-emergence, 16 g ai/ha, preemergence, scale 0 to 100 (0 no effect, 100 complete control), read-out: Wheat plant response rating): 0%
plant injury at 62 g/ha (wheat, winter; Triticum aestivum, pre-emergence, 62 g ai/ha, preemergence, scale 0 (no effect) to 100 (complete control), read-out: Wheat plant response rating): 0%
plant injury at 125 g/ha (wheat, winter; Triticum aestivum, pre-emergence, 125 g ai/ha, preemergence, scale 0 (no effect) to 100 (complete control), read-out: Wheat plant response rating): 15%
plant injury at 31 g/ha (wheat, winter; Triticum aestivum, pre-emergence, Preemergence, 31 g ai/ha, scale 0 to 100, 0 no effect, 100 complete control, read-out: Plant response rating, Wheat): 0%
pest or weed control at 16 g/ha (pigweed; Amaranthus retroflexus, pre-emergence, 16 g ai/ha, preemergence, scale 0 to 100 (0 no effect, 100 complete control), read-out: Pigweed plant response rating): 100%
pest or weed control at 62 g/ha (pigweed; Amaranthus retroflexus, pre-emergence, 62 g ai/ha, preemergence, scale 0 (no effect) to 100 (complete control), read-out: Pigweed plant response rating): 100%
pest or weed control at 125 g/ha (pigweed; Amaranthus retroflexus, pre-emergence, 125 g ai/ha, preemergence, scale 0 (no effect) to 100 (complete control), read-out: Pigweed plant response rating): 100%
pest or weed control at 31 g/ha (pigweed; Amaranthus retroflexus, pre-emergence, Preemergence, 31 g ai/ha, scale 0 to 100, 0 no effect, 100 complete control, read-out: Plant response rating, Pigweed): 100%
pest or weed control at 16 g/ha (galium [1]; Galium, pre-emergence, 16 g ai/ha, preemergence, scale 0 to 100 (0 no effect, 100 complete control), read-out: Galium plant response rating): 0%
pest or weed control at 62 g/ha (galium [1]; Galium, pre-emergence, 62 g ai/ha, preemergence, scale 0 (no effect) to 100 (complete control), read-out: Galium plant response rating): 90%
pest or weed control at 125 g/ha (galium [1]; Galium, pre-emergence, 125 g ai/ha, preemergence, scale 0 (no effect) to 100 (complete control), read-out: Galium plant response rating): 98%
pest or weed control at 31 g/ha (galium [1]; Galium, pre-emergence, Preemergence, 31 g ai/ha, scale 0 to 100, 0 no effect, 100 complete control, read-out: Plant response rating, Galium): 0%
Galium plant response rating (galium [2]; [9]): 100
Plant response rating, Galium (galium [2]; [10]): 100
Plant response rating, Kochia (kochia; [9]): 100
Kochia plant response rating (kochia; [10]): 100
